Source: ChEMBL document CHEMBL5029178, “Discovery of 3-amino-4-{(3S)-3-[(2-ethoxyethoxy)methyl]piperidin-1-yl}thieno[2,3-b]pyridine-2-carboxamide (DS96432529): A potent and orally active bone anabolic agent” (Bioorg Med Chem Lett, 2021)
≈ marks a conversion by molar mass, not a printed value. Blank lines part the entries; values can stand above or below the molecule they belong to. Calls of active or inactive are those of the source. No cut-off for these calls is given here.

Experiments:
[1] = system: ST-2; assay: […] of alkaline phosphatase activity in mouse ST-2 cells; assay type: cell-based
[2] = molecular target: CYP2C9 (Homo sapiens, UniProt P11712); assay: Inhibition of CYP2C9 (unknown origin) at 10 uM; assay type: ADME
[3] = molecular target: T1, CYP3A4 (Homo sapiens, UniProt P08684); assay: Inhibition of CYP3A4 (unknown origin) at 10 uM; assay type: ADME
[4] = system: Rattus norvegicus; assay: Anti-osteoporosis activity in ovariectomized rat assessed as increase in bone strength at 1 mg/kg, po; assay type: functional, organism-based
[5] = molecular target: CYP2D6 (Homo sapiens, UniProt P10635); assay: Inhibition of CYP2D6 (unknown origin) at 10 uM; assay type: ADME
[6] = system: Rattus norvegicus; assay: Antiosteoporotic activity against OVX-induced rat model assessed as increase in osteocalcin secretion in serum at 3 mg/kg/day; assay type: functional, organism-based
[7] = AUC (0 to 8 hrs) in Fischer 344 rat at 3 mg/kg, po; assay type: ADME, organism-based; parameters: time < 8 hr, route oral, dose 3 mg/kg; settings: in vivo
[8] = Cmax in Fischer 344 rat at 3 mg/kg, po; assay type: ADME, organism-based; parameters: route oral, dose 3 mg/kg; settings: in vivo
[9] = Solubility of the compound in JP2 fluid at pH 6.8; assay type: physicochemical
[10] = system: Rattus norvegicus; assay: Antiosteoporotic activity against OVX-induced rat model assessed as increase in deo-xypyridinoline level at 0.3 mg/kg/day; assay type: functional, organism-based
[11] = molecular target: T1, CYP3A4; assay: Time dependent inhibition of CYP3A4 in human liver microsomes assessed as parent compound remaining at 100 uM; assay type: ADME; settings: read-out: TDI
[12] = system: Rattus norvegicus; assay: Anti-osteoporosis activity in ovariectomized rat assessed as […] in areal bone mineral density in total humerus at 1 mg/kg, po qd measured after 14 weeks; assay type: functional, organism-based
[13] = system: Rattus norvegicus; assay: Anti-osteoporosis activity in ovariectomized rat assessed as […] in areal bone mineral density in humeral diaphysis at 3 mg/kg, po qd measured after 14 weeks; assay type: functional, organism-based
[14] = molecular target: CYP2C19 (Homo sapiens, UniProt P33261); assay: Inhibition of CYP2C19 (unknown origin) at 10 uM; assay type: ADME
[15] = molecular target: T2, CYP1A2 (Homo sapiens, UniProt P05177); assay: Inhibition of CYP1A2 (unknown origin) at 10 uM; assay type: ADME
T2 sequence (P05177 whole entry): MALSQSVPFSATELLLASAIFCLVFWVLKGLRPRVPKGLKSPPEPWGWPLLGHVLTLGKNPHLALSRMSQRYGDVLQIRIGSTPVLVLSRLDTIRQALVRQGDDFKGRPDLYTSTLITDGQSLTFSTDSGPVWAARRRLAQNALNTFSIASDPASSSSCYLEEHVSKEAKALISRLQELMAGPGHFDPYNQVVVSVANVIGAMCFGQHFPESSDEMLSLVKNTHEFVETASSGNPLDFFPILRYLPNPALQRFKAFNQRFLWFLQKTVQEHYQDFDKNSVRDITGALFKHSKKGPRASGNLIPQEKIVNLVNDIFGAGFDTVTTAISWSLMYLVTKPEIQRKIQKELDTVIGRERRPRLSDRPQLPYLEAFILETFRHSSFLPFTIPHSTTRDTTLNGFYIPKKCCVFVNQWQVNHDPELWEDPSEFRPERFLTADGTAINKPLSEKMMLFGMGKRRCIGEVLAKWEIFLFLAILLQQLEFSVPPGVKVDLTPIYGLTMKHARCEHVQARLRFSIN

[16] = system: Rattus norvegicus; assay: Anti-osteoporosis activity in ovariectomized rat assessed as […] in areal bone mineral density in humeral diaphysis at 1 mg/kg, po qd measured after 14 weeks; assay type: functional, organism-based
[17] = AUC in Fischer 344 rat at 100 mg/kg, po; assay type: ADME, organism-based; parameters: dose 100 mg/kg; settings: in vivo
[18] = Metabolic stability in human liver microsomes assessed as compound remaining at 0.5 mg/ml measured after 30 mins; assay type: ADME, Microsome; settings: read-out: Stability
[19] = Effective permeability coefficient at pH 7.4 by PAMPA method; assay type: ADME; settings: read-out: Peff
[20] = Effective permeability coefficient at pH 5 by PAMPA method; assay type: ADME; settings: read-out: Peff

T1 sequence (P08684 whole entry): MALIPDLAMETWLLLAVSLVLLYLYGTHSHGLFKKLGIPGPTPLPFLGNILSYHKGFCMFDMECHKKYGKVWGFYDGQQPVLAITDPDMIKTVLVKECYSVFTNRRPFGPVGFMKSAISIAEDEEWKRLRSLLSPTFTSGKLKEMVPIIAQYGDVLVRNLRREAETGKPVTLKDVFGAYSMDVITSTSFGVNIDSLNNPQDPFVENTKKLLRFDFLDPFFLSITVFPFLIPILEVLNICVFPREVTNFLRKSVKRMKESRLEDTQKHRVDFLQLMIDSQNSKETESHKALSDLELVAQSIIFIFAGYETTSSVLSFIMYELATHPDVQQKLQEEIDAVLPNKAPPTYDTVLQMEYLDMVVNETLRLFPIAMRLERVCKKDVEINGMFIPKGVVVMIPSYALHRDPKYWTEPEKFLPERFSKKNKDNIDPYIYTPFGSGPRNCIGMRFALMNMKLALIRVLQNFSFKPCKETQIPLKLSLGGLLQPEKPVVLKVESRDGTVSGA
Chain of CYP2D6 (P10635 whole entry): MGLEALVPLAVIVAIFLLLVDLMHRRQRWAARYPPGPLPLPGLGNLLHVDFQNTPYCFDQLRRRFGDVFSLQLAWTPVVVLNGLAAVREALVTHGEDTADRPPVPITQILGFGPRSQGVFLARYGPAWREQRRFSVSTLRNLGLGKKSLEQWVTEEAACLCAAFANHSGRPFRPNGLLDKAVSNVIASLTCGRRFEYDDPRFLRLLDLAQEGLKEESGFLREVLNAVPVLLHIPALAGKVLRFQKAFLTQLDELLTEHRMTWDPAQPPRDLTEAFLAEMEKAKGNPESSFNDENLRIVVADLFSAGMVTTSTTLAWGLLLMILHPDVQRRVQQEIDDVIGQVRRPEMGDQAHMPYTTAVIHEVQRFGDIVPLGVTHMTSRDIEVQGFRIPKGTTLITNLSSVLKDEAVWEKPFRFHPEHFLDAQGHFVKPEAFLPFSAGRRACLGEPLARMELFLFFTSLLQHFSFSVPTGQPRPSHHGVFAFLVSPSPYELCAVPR
Chain of CYP2C19 (P33261 whole entry): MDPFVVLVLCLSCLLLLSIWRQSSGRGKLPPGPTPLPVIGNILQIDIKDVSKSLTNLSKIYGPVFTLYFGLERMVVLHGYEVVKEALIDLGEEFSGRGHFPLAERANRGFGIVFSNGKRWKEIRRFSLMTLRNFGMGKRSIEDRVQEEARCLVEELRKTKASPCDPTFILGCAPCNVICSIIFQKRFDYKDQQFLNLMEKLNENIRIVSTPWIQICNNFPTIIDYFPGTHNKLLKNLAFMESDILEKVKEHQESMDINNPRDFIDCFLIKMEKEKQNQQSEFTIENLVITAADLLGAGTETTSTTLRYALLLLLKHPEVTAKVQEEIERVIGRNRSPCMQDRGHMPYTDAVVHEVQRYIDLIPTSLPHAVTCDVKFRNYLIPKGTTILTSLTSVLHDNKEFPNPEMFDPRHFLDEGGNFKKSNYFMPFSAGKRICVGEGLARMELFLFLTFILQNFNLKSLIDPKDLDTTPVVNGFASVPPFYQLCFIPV
Chain of CYP2C9 (P11712 whole entry): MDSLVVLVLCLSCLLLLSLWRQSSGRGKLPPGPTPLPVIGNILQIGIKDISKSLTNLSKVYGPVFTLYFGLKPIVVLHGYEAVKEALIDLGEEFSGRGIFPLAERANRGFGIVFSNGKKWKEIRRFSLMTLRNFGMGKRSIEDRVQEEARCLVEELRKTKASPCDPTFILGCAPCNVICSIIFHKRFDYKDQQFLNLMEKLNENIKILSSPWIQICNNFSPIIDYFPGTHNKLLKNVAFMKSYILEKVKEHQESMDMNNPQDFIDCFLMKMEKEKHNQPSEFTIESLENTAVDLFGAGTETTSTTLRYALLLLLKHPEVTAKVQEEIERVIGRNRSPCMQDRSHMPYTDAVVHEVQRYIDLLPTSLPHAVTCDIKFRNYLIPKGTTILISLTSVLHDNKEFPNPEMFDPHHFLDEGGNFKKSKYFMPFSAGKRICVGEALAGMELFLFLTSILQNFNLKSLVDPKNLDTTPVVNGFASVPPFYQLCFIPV

SMILES: Cc1cc(Oc2ccc(CCCC(=O)N(C)C)cc2F)c2c(N)c(C(N)=O)sc2n1
EC200 [1]: 0.0005 µg/mL

SMILES: COCC1CCCN(c2ccnc3sc(C(N)=O)c(N)c23)C1 (stereo in doubt; 9g) [listing 1 of 2 here]
EC200 [1]: 0.049 µg/mL

SMILES: Cn1cnnc1COC[C@H]1CCCN(c2ccnc3sc(C(N)=O)c(N)c23)C1
EC200 [1]: 0.168 µg/mL

inhibition at 10 µM [2]: 2%
inhibition at 10 µM [3]: 10%
inhibition at 10 µM [5]: 2%
AUC(0-t) at 8 h [7]: 2000 ng·h/mL
Cmax [8]: 804 ng/mL
solubility [9]: 500 µg/mL (≈ 1320 µM)
remaining at 100 µM [11]: 82%
inhibition at 10 µM [14]: 15%
inhibition at 10 µM [15]: 33%
SMILES: CCOCCOC[C@H]1CCCN(c2ccnc3sc(C(N)=O)c(N)c23)C1
Activity [4]: Active
Activity [6]: Active
EC200 [1]: 0.024 µg/mL
Activity [10]: Active
Activity [12]: Active
Activity [13]: Active
Activity [16]: Active

SMILES: Cc1nsc(COC[C@H]2CCCN(c3ccnc4sc(C(N)=O)c(N)c34)C2)n1
EC200 [1]: 0.05 µg/mL

AUC(0-t) at 8 h [7]: 756 ng·h/mL
Cmax [8]: 217 ng/mL
SMILES: NC(=O)c1sc2nccc(N3CCC[C@H](COCC(=O)N4CCOCC4)C3)c2c1N
EC200 [1]: 0.014 µg/mL

SMILES: NC(=O)c1sc2nccc(N3CCCC(O)C3)c2c1N (stereo not drawn)
EC200 [1]: 0.17 µg/mL

AUC [17]: 18800 ng·h/mL
SMILES: NC(=O)c1sc2nccc(N3CCCC(C(=O)O)C3)c2c1N (stereo not drawn)
EC200 [1]: > 0.3 µg/mL

SMILES: COC[C@@H]1CCCN(c2ccnc3sc(C(N)=O)c(N)c23)C1
EC200 [1]: 0.25 µg/mL

remaining at 0.5 h [18]: 18%
SMILES: CC1CCCN(c2ccnc3sc(C(N)=O)c(N)c23)C1 (stereo not drawn)
EC200 [1]: 0.024 µg/mL

SMILES: CCCOCC1CCCN(c2ccnc3sc(C(N)=O)c(N)c23)C1 (stereo not drawn)
EC200 [1]: 0.095 µg/mL

SMILES: CN(C)c1ccnc2sc(C(N)=O)c(N)c12
EC200 [1]: 0.17 µg/mL

AUC(0-t) at 8 h [7]: 563 ng·h/mL
Cmax [8]: 158 ng/mL
SMILES: Cc1noc(COC[C@H]2CCCN(c3ccnc4sc(C(N)=O)c(N)c34)C2)n1
EC200 [1]: 0.017 µg/mL

remaining at 100 µM [11]: 28%
SMILES: NC(=O)c1sc2nccc(N3CCCN(c4ccccc4)CC3)c2c1N
EC200 [1]: 0.051 µg/mL

SMILES: CCOCC1CCCN(c2ccnc3sc(C(N)=O)c(N)c23)C1 (stereo not drawn)
EC200 [1]: 0.031 µg/mL

AUC(0-t) at 8 h [7]: 722 ng·h/mL
Cmax [8]: 188 ng/mL
SMILES: Cc1cc(N2CCC[C@H](COCc3nc(C)no3)C2)c2c(N)c(C(N)=O)sc2n1
EC200 [1]: 0.026 µg/mL

SMILES: CC(C)OC[C@H]1CCCN(c2ccnc3sc(C(N)=O)c(N)c23)C1
EC200 [1]: 0.057 µg/mL

AUC(0-t) at 8 h [7]: 45 ng·h/mL
Cmax [8]: 15.1 ng/mL
SMILES: Cn1ccnc1COC[C@H]1CCCN(c2ccnc3sc(C(N)=O)c(N)c23)C1
EC200 [1]: 0.019 µg/mL

remaining at 0.5 h [18]: 66%
SMILES: COCC1CCCN(c2ccnc3sc(C(N)=O)c(N)c23)C1 (stereo in doubt; 9g) [listing 2 of 2 here]

SMILES: COCCC1CCCN(c2ccnc3sc(C(N)=O)c(N)c23)C1 (stereo not drawn)
EC200 [1]: 0.26 µg/mL

SMILES: COCC1CCCN(c2ccnc3sc(C(N)=O)c(N)c23)C1 (racemic)
EC200 [1]: 0.049 µg/mL

AUC(0-t) at 8 h [7]: 1350 ng·h/mL
Cmax [8]: 357 ng/mL
solubility [9]: 560 µg/mL (≈ 1430 µM)
SMILES: CCOCCOC[C@H]1CCCN(c2cc(C)nc3sc(C(N)=O)c(N)c23)C1
EC200 [1]: 0.03 µg/mL

SMILES: COC(C)[C@H]1CCCN(c2ccnc3sc(C(N)=O)c(N)c23)C1 (stereo partly drawn)
EC200 [1]: 0.146 µg/mL

SMILES: COCCCC1CCCN(c2ccnc3sc(C(N)=O)c(N)c23)C1 (stereo not drawn)
EC200 [1]: 0.026 µg/mL

inhibition at 10 µM [2]: 4%
inhibition at 10 µM [3]: 23%
remaining at 0.5 h [18]: 20%
inhibition at 10 µM [5]: 9%
remaining at 100 µM [11]: 92%
inhibition at 10 µM [14]: 0%
inhibition at 10 µM [15]: 62%
SMILES: NC(=O)c1sc2nccc(N3CCCCC3)c2c1N
EC200 [1]: 0.067 µg/mL

SMILES: CN(C)C(=O)C1CCCN(c2ccnc3sc(C(N)=O)c(N)c23)C1 (stereo not drawn)
EC200 [1]: > 0.3 µg/mL

SMILES: NC(=O)c1sc2nccc(N3CCCC(CO)C3)c2c1N (stereo not drawn)
EC200 [1]: 0.076 µg/mL

Papp [19]: 2.9 ×10⁻⁶ cm/s
AUC(0-t) at 8 h [7]: 320 ng·h/mL
Cmax [8]: 114 ng/mL
Papp [20]: 2.8 ×10⁻⁶ cm/s
SMILES: NC(=O)c1sc2nccc(N3CCC[C@H](COCCO)C3)c2c1N
EC200 [1]: 0.017 µg/mL

SMILES: CC1CCN(c2ccnc3sc(C(N)=O)c(N)c23)CC1
EC200 [1]: 0.23 µg/mL

AUC(0-t) at 8 h [7]: 227 ng·h/mL
Cmax [8]: 80.5 ng/mL
solubility [9]: 220 µg/mL (≈ 687 µM)
SMILES: COC[C@H]1CCCN(c2ccnc3sc(C(N)=O)c(N)c23)C1
EC200 [1]: 0.022 µg/mL
